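Step 1: Grow cells in 96-well plates. Step 2: Expose to compound for 48 hours at 5 concentrations. Step 3: Interpolate endpoints linearly; if unreached, use highest concentration. At the GI50, growth is halved.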 The source made the active and inactive calls. No stated cut-off is given here; in the data, active = GI50 up to about 1.1 µM and inactive = higher.
Columns and labels:
Experiment in all cases: NCI-60 cell line screen, 48 h
Hs-578T = tested on: Hs-578T
OVCAR-3 = tested on: OVCAR-3
SF-295 = tested on: SF-295
MCF7 = tested on: MCF7
K562 = tested on: K562
CAKI-1 = tested on: CAKI-1
PC-3 = tested on: PC-3
MDA-N = tested on: MDA-N
MDA-MB-231 = tested on: MDA-MB-231
HT-29 = tested on: HT-29
DU-145 = tested on: DU-145
TK-10 = tested on: TK-10
HCC 2998 = tested on: HCC 2998
SF-268 = tested on: SF-268
COLO 205 = tested on: COLO 205
NCI/ADR-RES = tested on: NCI/ADR-RES
OVCAR-8 = tested on: OVCAR-8
RPMI-8226 = tested on: RPMI-8226
HOP-62 = tested on: HOP-62
RXF 393 = tested on: RXF 393

Row | Compound | GI50 (Hs-578T) | GI50 (OVCAR-3) | GI50 (SF-295) | GI50 (MCF7) | GI50 (K562) | GI50 (CAKI-1) | GI50 (PC-3) | GI50 (MDA-N) | GI50 (MDA-MB-231) | GI50 (HT-29) | GI50 (DU-145) | GI50 (TK-10) | GI50 (HCC 2998) | GI50 (SF-268) | GI50 (COLO 205) | GI50 (NCI/ADR-RES) | GI50 (OVCAR-8) | GI50 (RPMI-8226) | GI50 (HOP-62) | GI50 (RXF 393)
1 | Clc1cc(C(c2cc(Cl)sc2Cl)c2cc(Cl)sc2Cl)c(Cl)s1 | > 100 µM (inactive) | > 100 µM (inactive) | > 100 µM (inactive) | > 100 µM (inactive) | > 100 µM (inactive) | > 100 µM (inactive) | > 100 µM (inactive) | > 100 µM (inactive) | > 100 µM (inactive) | > 100 µM (inactive) | > 100 µM (inactive) | > 100 µM (inactive) | > 100 µM (inactive) | > 100 µM (inactive) | > 100 µM (inactive) | > 100 µM (inactive) | > 100 µM (inactive) | > 100 µM (inactive) | > 100 µM (inactive) | > 100 µM (inactive)
2 | Cn1c(-c2ccc(-c3cc(-c4cccs4)c(-c4cccs4)n3C)cc2)cc(-c2cccs2)c1-c1cccs1 | > 100 µM (inactive) | – | > 100 µM (inactive) | > 100 µM (inactive) | > 100 µM (inactive) | > 100 µM (inactive) | > 100 µM (inactive) | > 100 µM (inactive) | > 100 µM (inactive) | > 100 µM (inactive) | > 100 µM (inactive) | > 100 µM (inactive) | > 100 µM (inactive) | > 100 µM (inactive) | > 100 µM (inactive) | > 100 µM (inactive) | > 100 µM (inactive) | > 100 µM (inactive) | > 100 µM (inactive) | > 100 µM (inactive)
3 | Cc1nc2c(n1-c1ccc(Br)cc1)C(=O)c1ccccc1C2=O | 7.78 µM (inactive) | 12 µM (inactive) | 5.45 µM (inactive) | 3.62 µM (inactive) | 1.33 µM (inactive) | 12.5 µM (inactive) | 1.26 µM (inactive) | 6.84 µM (inactive) | 0.406 µM (active) | 6.68 µM (inactive) | 58.2 µM (inactive) | 34.4 µM (inactive) | 14 µM (inactive) | 5.21 µM (inactive) | 4.38 µM (inactive) | 5.78 µM (inactive) | 6.52 µM (inactive) | 1.43 µM (inactive) | 18.3 µM (inactive) | 14.8 µM (inactive)
4 | CNC(=O)N(C)C(=O)c1ccccc1C(=O)N(C)C(=O)NC | > 10 µM (inactive) | > 10 µM (inactive) | > 10 µM (inactive) | > 10 µM (inactive) | > 10 µM (inactive) | > 10 µM (inactive) | > 10 µM (inactive) | > 10 µM (inactive) | > 10 µM (inactive) | > 10 µM (inactive) | > 10 µM (inactive) | > 10 µM (inactive) | > 10 µM (inactive) | > 10 µM (inactive) | > 10 µM (inactive) | > 10 µM (inactive) | > 10 µM (inactive) | > 10 µM (inactive) | > 10 µM (inactive) | > 10 µM (inactive)
5 | CCOC(=O)c1cc(C)n(CN(CCO)Cn2nc(C(=O)OCC)cc2C)n1 | 97.7 µM (inactive) | 26 µM (inactive) | > 100 µM (inactive) | 28.2 µM (inactive) | 26.9 µM (inactive) | 36.2 µM (inactive) | 28.4 µM (inactive) | 29.2 µM (inactive) | 27.9 µM (inactive) | 23.6 µM (inactive) | 25.5 µM (inactive) | 80.2 µM (inactive) | 11.8 µM (inactive) | 34.9 µM (inactive) | 20.5 µM (inactive) | 18.7 µM (inactive) | 22.7 µM (inactive) | 19.9 µM (inactive) | 25.9 µM (inactive) | 19.3 µM (inactive)
6 | Cc1cc(O)c(C(C)C)cc1C1(c2cc(C(C)C)c(O)cc2C)OC(=O)c2ccccc21 | 2.14 µM (inactive) | 2.06 µM (inactive) | 1.78 µM (inactive) | 1.84 µM (inactive) | 1.19 µM (inactive) | 3.37 µM (inactive) | 2.26 µM (inactive) | 1.67 µM (inactive) | 1.91 µM (inactive) | 2.39 µM (inactive) | 2.07 µM (inactive) | 3.33 µM (inactive) | 1.73 µM (inactive) | 2.1 µM (inactive) | 1.93 µM (inactive) | 2.9 µM (inactive) | 2.7 µM (inactive) | 1.21 µM (inactive) | 2.76 µM (inactive) | 1.47 µM (inactive)
7 | C=CCN1CCC2(CC1)NC(=O)c1ccccc1O2 | > 100 µM (inactive) | > 100 µM (inactive) | > 100 µM (inactive) | > 100 µM (inactive) | > 100 µM (inactive) | > 100 µM (inactive) | > 100 µM (inactive) | > 100 µM (inactive) | > 100 µM (inactive) | > 100 µM (inactive) | > 100 µM (inactive) | > 100 µM (inactive) | > 100 µM (inactive) | > 100 µM (inactive) | > 100 µM (inactive) | > 100 µM (inactive) | > 100 µM (inactive) | > 100 µM (inactive) | > 100 µM (inactive) | > 100 µM (inactive)
